# Measurements published in patent publication US8629116B2, “Method for inducing a TRIF-bias” (priority 2008, dated 2014).
# What was measured:
# [1] = test system: human peripheral blood mononuclear cells (PBMCs); experiment: Cytokine/chemokine induction in fresh human PBMCs; assay type: cell-based
# Procedure: Peripheral blood mononuclear cells (PBMCs) are isolated from the blood of healthy donors via a Ficoll Hypaque 1.077 gradient and treated with agonists or are used to isolate adherent monocytes in monocyte media (RPMI 1640 (ATCC), 10% human AB serum (Lonza/BioWhittaker), 100 U/mL penicillin/100 ug/mL streptomycin (Sigma), 50 uM 2-mercaptoethanol (Sigma) as described (Stover et al. 4440-49; Kawai et al. 5887-94; Gervassi et al. 7231-39). Monocyte-derived macrophages are produced by incubating adherent monocytes for 5 days in monocyte media with 50 ng/mL rhM-CSF (R&D Systems) with media changes at day 3 and day 5 before agonist treatment. Monocyte-derived dendritic cells (DC) are produced by incubating adherent monocytes for 7 days in monocyte media with 10 ng/mL rhGM-CSF and 10 ng/mL rhIL-4 (R&D Systems) with media changes on day 3 and day 6.
# Expression of TNFα and MIP-1α are dependent upon signaling through the TLR4 adaptor, MyD88, while expression of IP-10 and RANTES are dependent upon signaling through the TLR4 adaptor, TRIF/TICAM-1 (Hoebe et al, Kawai et al).
# [2] = molecular target: T1, muTLR4, muMD-2, and muCD14 (Mus musculus, UniProt Q9JHF9+Q9QUK6); experiment: NFκB reporter activity in HEK293 cells transfected with muTLR4, muMD-2, muCD14; assay type: cell-based; details: HEK293 muTLR4/muMD-2/muCD14
# T1 construct: expressed in transfected cells; host or cells: HEK293
# T1 sequence (Q9QUK6 26-835): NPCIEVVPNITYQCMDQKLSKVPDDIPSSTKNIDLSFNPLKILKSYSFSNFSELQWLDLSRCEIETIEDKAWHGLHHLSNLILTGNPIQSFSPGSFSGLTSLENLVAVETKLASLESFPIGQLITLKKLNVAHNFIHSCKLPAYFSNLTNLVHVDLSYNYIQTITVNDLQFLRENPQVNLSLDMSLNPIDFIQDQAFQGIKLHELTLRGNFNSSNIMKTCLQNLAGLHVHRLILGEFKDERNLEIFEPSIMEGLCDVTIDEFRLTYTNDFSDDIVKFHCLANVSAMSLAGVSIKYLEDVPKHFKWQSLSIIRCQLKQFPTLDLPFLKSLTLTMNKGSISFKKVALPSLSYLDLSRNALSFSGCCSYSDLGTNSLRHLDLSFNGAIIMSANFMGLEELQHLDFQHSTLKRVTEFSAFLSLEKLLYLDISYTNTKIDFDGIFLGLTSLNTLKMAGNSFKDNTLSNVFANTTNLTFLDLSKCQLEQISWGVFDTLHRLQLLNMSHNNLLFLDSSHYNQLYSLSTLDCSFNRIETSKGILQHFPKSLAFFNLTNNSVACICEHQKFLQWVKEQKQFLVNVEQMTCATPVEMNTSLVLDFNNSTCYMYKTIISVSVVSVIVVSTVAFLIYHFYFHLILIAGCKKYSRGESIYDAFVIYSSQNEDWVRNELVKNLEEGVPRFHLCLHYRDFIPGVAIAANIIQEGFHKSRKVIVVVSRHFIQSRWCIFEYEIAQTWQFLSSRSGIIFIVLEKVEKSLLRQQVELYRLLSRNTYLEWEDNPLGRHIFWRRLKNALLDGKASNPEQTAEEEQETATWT
# T1 sequence (Q9JHF9 19-160): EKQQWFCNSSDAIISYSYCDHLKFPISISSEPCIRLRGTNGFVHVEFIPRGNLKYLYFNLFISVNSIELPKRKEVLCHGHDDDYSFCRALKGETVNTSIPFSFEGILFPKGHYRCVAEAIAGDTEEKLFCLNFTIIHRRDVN
# [3] = compared among LPS, CRX-527, CRX-547
structure (smiles),measurement,setting,value
CCCCCCCCCCCC(CC(=O)NC(COC1OC(CO)C(OP(=O)(O)O)C(OC(=O)CC(CCCCCCCCCCC)OC(=O)CCCCCCCCC)C1NC(=O)CC(CCCCCCCCCCC)OC(=O)CCCCCCCCC)C(=O)O)OC(=O)CCCCCCCCC.CCN(CC)CC (centres unmarked) [CRX-547],induction of MIP-1α (MyD88-dependent),[1]; [3],significantly lower levels
same,induction of TNFα (MyD88-dependent),[1]; [3],significantly lower levels
same,induction of IP-10 (TRIF-dependent),[1]; relative to CRX-527 and LPS,comparable levels
same,induction of RANTES (TRIF-dependent),[1]; relative to CRX-527 and LPS,comparable levels
same,NFκB reporter activity,[2],more similar to CRX-527 and LPS
